In this test the test system is Pseudomonas aeruginosa isolates (n = 109). Nature of the test: Broth microdilution MIC, clinical isolate panel. Type of test: cell-based. The settings on record: Pseudomonas aeruginosa.

For orientation: MIC50 means an inhibitory concentration at the 50% level, which refers to growth in some studies and to a panel of isolates in others. A higher MIC50 goes with lower susceptibility. By MIC is commonly meant the least concentration at which growth counts as inhibited.

In brackets after ≈: the same amount, converted by molar mass.

Take `C[C@H]1COc2c(N3CCN(C)CC3)c(F)cc3c(=O)c(C(=O)O)cn1c23` [Levofloxacin]: the MIC50 stood at 1 µg/mL (≈ 2.77 µM). For the same compound, under “read-out: Mode (MIC)”, the minimum inhibitory concentration (MIC) turned out to be 0.25 µg/mL (≈ 0.692 µM).

The values above are taken from US20200071361A1, “ENGINEERED ANTIMICROBIAL AMPHIPHILIC PEPTIDES AND METHODS OF USE” (priority 2017, published 2020).
